Assay results as given in patent US6958402B2, “3-(imidazolyl)-2-alkoxypropanoic acids” (Pfizer, Inc., priority 2002, dated 2005).
Where a name gives a salt, the structure may show the parent alone.

Experiments:
[1] = biological target: T1, TAFIa (activated human TAFI) (Homo sapiens, UniProt Q96IY4); assay: Assay for TAFIa inhibition (Ki determination, FAAL substrate hydrolysis); type: biochemical; conditions: Ki calculated from IC50 with Cheng-Prusoff equation; substrate furylacryloyl-alanyl-lysine, 24° C.; read-out: Ki (TAFla)
T1 sequence (Q96IY4 115-423): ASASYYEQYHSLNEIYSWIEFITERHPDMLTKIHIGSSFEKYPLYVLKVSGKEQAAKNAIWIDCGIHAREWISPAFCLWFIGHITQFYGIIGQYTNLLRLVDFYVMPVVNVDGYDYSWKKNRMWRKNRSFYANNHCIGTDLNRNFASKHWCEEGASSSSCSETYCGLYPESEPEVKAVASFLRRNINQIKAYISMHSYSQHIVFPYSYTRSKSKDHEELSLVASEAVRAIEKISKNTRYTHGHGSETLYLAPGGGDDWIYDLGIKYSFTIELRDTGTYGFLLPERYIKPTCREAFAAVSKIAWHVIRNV
Method: The compounds are incubated with activated TAFI and a standard substrate for TAFIa, the rate of hydrolysis of the substrate is determined and compared to the rate of hydrolysis in the absence of the compounds, and the amount of inhibition expressed in terms of Ki.
Human TAFI (recombinant or purified) was activated by incubating 20 μl of stock solution (360 μg/ml) with 10 μl of human thrombin (10NIH units/ml), 10 μl of rabbit thrombomodulin (30 μg/ml), 6 μl calcium chloride (50 mM) in 50 μl of 20 mM HEPES (N-[2-hydroxyethyl]piperazine-N-[2-ethanesulfonic acid]) buffer containing 150 mM sodium chloride and 0.01% TWEEN 80 (polyoxyethylene-sorbitan monooleate) pH 7.6 for 20 minutes at 22° C. At the end of the incubation period, thrombin was neutralised by the addition of 10 μL of PPACK (D-Phe-Pro-Arg chloromethyi ketone) (100 nM). The resulting TAFIa. solution was stored on ice for 5 minutes and finally diluted with 175 μl of HEPES buffer.
(§1) A number of different dilutions of the test compound in water were made up. To 20 μl of each dilution was added 150 μl of HEPES buffer and 10 μl of TAFIa, which was then pre-incubated for 15 minutes at 24° C. To each dilution was then added 20 μl furylacryloyl-alanyl-lysine (FAAL) at a standard concentration. Substrate turnover was measured by reading the absorbance of the reaction mixture at 330 nm every 15 seconds for 30 minutes. The reaction was performed at 24° C. and samples were mixed for 3 seconds prior to each absorbance reading.
(§2) A graph of % inhibition against test compound concentration was then plotted; from which was calculated the IC50 value. The Ki value was then calculated using the Cheng-Prusoff equation.
For the first control, the assay was performed as above, but with 20 μl of water rather than a dilution of the test compound.

[2] = biological target: T2, human CPN (Homo sapiens, UniProt P15169); assay: CPN Ki determination (TAFIa assay with human CPN substituted for TAFIa); type: biochemical
T2 sequence (P15169 21-458): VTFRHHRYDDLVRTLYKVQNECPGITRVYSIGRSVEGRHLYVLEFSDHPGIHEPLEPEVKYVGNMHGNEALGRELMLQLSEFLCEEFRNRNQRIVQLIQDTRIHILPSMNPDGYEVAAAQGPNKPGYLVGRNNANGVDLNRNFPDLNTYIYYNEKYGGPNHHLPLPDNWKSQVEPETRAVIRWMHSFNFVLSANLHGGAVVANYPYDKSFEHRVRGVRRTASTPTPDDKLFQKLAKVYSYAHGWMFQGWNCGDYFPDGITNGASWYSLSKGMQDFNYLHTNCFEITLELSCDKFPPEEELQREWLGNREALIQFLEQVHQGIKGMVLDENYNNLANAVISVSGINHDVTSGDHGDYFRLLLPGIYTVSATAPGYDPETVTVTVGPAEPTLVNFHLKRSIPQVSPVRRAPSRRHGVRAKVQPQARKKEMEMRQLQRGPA
T2 sequence (P22792 22-545 partner): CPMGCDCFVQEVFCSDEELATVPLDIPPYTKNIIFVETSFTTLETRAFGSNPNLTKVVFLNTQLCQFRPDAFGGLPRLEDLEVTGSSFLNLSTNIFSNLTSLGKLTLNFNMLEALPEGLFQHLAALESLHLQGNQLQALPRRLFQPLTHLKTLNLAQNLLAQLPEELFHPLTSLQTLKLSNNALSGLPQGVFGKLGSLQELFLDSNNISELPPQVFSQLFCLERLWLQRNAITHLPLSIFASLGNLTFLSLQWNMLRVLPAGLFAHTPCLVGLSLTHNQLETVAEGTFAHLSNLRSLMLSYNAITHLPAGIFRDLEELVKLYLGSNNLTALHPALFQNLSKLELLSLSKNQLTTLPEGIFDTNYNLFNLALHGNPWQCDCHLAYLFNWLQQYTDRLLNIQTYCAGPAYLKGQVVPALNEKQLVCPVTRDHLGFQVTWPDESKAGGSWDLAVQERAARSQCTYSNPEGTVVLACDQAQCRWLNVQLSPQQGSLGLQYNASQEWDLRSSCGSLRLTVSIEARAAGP
Method: as §1, §2
The selectivity of the compounds of the present invention for TAFIa over CPN was determined by calculating the Ki of the compounds of the present invention for CPN, then comparing it to the Ki for TAFIa. The Ki was calculated using the assay for the calculation of TAFIa Ki, but substituting 10 μl of human CPN for 10 μl of TAFIa.

Row | SMILES | Ki [1] | Selectivity for TAFIa over CPN ([2]; Ki for CPN compared to Ki for TAFIa) | Ki ([2]; same assay with 10 μl human CPN in place of TAFIa)
1 | NCCOC(Cc1cn(CCc2ccccc2)cn1)C(=O)O (stereo not shown) [Example 4] | 10 nM |  | 
2 | NCCO[C@@H](Cc1cn(CCC2CCCCC2)cn1)C(=O)O [Example 5, (2S)-(−)-2-(2-Aminoethoxy)-3-[1-(2-cyclohexylethyl)-1H-imidazol-4-yl]propanoic acid] | 10 nM |  | 
3 | NCCOC(Cc1cn(-c2cccc(Oc3ccccc3)c2)cn1)C(=O)O (stereo not shown) [Example 40, 2-(2-Aminoethoxy)-3-[1-(3-phenoxyphenyl)-1H-imidazol-4-yl]propanoic acid dihydrochloride] | 14 nM |  | 
4 | C[C@H](CN)O[C@@H](Cc1cn(-c2ccc(OC3CCCCC3)cc2)cn1)C(=O)O [Example 49, (2S)-2-{[(1R)-2-Amino-1-methylethyl]oxy}-3-{1-[4-(cyclohexyloxy)phenyl]-1H-imidazol-4-yl}propanoic acid] | 9 nM |  | 
5 | C[C@H](CN)O[C@@H](Cc1c[nH]cn1)C(=O)O [Example 51, (2S)-2-{[(1R)-2-Amino-1-methylethyl]oxy}-3-(1H-imidazol-4-yl)propanoic acid] | 26 nM | >380 | > 10000 nM
